# Source: patent US12528790B2, “Amide derivative having antiviral activity” (Shionogi & Co., Ltd., priority 2020, dated 2026)
# Test system: RSV A2 strain
# Experiment: In vitro CPE (CytoPathic Effect) inhibition effect evaluation test, RSV type A
# Type: cell-based
# Settings: human respiratory syncytial virus; inhibitory effect against RSV type A (RSV A2 strain), HEp-2 cells, CPE inhibition; read-out: EC50
# Method in brief: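 HEp-2 cells (2.4×10^5 cells/mL, 2% FBS E-MEM) were infected with RSV alongside 3-fold compound dilutions and incubated at 37 °C, 4 days for A2 and 5 days for B Wash/18537. Viable cells quantified by CellTiter-Glo 2.0 luminescence; EC50 by nonlinear regression as 50% CPE inhibition.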
row,SMILES,EC50 [nM]
1,O=C(NC1(C(=O)O)C2CC3CC(C2)CC1C3)c1cnc(N2CC3(CCOCC3)c3cc(Nc4ccccn4)ccc32)nc1C(F)(F)F (centres unmarked) [Compound I-280],< 10
2,CC1(C)CCC(n2cc(-c3ccc(C(=O)NC4(C(=O)O)C5CC6CC(C5)CC4C6)c(C(F)(F)F)n3)c3ccc(OC4CCN(c5ncccn5)CC4)cc32)CC1 (centres unmarked) [Compound I-281],< 10
3,O=C(NC1(C(=O)O)C2CC3CC(C2)CC1C3)c1ccc(-c2cn(-c3ccc(F)cn3)c3cc(OC4CCN(c5ncccn5)CC4)ccc23)nc1C(F)(F)F (centres unmarked) [Compound I-290],< 10

# More lines, now with the values ahead:
row,EC50 [nM],SMILES
1,< 10,Cc1c(OC2CCN(c3ncccn3)CC2)ccc2c(-c3ncc(C(=O)NC4(C(=O)O)C5CC6CC(C5)CC4C6)c(C(F)(F)F)n3)cn(C3CCC(F)(F)CC3)c12 (centres unmarked) [Compound I-282]
2,< 10,O=C(NC1(C(=O)O)C2CC3CC(C2)CC1C3)c1cnc(N2CC3(CCOCC3)c3cc(F)ccc32)nc1C(F)(F)F (centres unmarked) [Compound I-284]
3,< 10,O=C(NC1(C(=O)O)C2CC3CC(C2)CC1C3)c1ccc(-c2cn([C@H]3CC[C@@H](C(F)(F)F)CC3)c3cc(OC4CCN(c5ncccn5)CC4)ccc23)nc1C(F)(F)F (some centres unmarked) [Compound I-285]
4,10 to 100,O=C(NC1(C(=O)O)C2CC3CC(C2)CC1C3)c1ccc(-c2cn([C@H]3CC[C@H](C(F)(F)F)CC3)c3cc(OC4CCN(c5ncccn5)CC4)ccc23)nc1C(F)(F)F (some centres unmarked) [Compound I-286]
5,< 10,O=C(NC1(C(=O)O)C2CC3CC(C2)CC1C3)c1cnc(N2CC3(CCOCC3)c3c2cc(F)c(F)c3F)nc1C(F)(F)F (centres unmarked) [Compound I-287]
6,< 10,O=C(NC1(C(=O)O)C2CC3CC(C2)CC1C3)c1ccc(-c2cn(C3CCCC3)c3cc(OC4CCN(c5ncccn5)CC4)ccc23)nc1C(F)(F)F (centres unmarked) [Compound I-289]
7,< 10,CC(C)(C)C[C@@H](NC(=O)c1cnc(-c2cn(C3CCC(F)(F)CC3)c3cc(OC4CCN(c5ncccn5)CC4)ccc23)nc1C(F)(F)F)C(=O)O [Compound I-302]
8,< 10,Cn1ccc(CCOc2ccc3c(-c4ncc(C(=O)NC5(C(=O)O)C6CC7CC(C6)CC5C7)c(C(F)(F)F)n4)cn(C4CCC(F)(F)CC4)c3c2)n1 (centres unmarked) [Compound I-366]
9,< 10,O=C(NC1(C(=O)O)C2CC3CC(C2)CC1C3)c1cnc(-c2cn(C3CCC(F)(F)CC3)c3cc(OC4CCC5(CC4)CN(c4ncccn4)C5)ccc23)nc1C(F)(F)F (centres unmarked) [Compound I-369]
10,< 10,O=C(NC1(C(=O)O)C2CC3CC(C2)CC1C3)c1cnc(-c2cn(C3CCC(F)(F)CC3)c3cc(OC4CCN(c5ncccn5)CC4F)ccc23)nc1C(F)(F)F (centres unmarked) [Compound I-371]

# Same assay, conditions: inhibitory effect against RSV type A (RSV A2 strain), HEp-2 cells, CPE inhibition; read-out: EC50
row,SMILES,EC50 [nM]
1,CC(F)(F)c1nc(N2CC3(CCOCC3)c3cc(OC4CCN(c5ncccn5)CC4)ccc32)ncc1C(=O)NC1(C(=O)O)C2CC3CC(C2)CC1C3 (centres unmarked) [Compound I-294],< 10
2,O=C(NC1(C(=O)O)C2CC3CC(C2)CC1C3)c1cnc(N2CC3(CCOCC3)c3cc(C(F)(F)F)ccc32)nc1C(F)(F)F (centres unmarked) [Compound I-307],< 10
3,O=C(NC1(C(=O)O)C2CC3CC(C2)CC1C3)c1ccc(-c2cn(-c3ncccc3F)c3cc(OC4CCN(c5ncccn5)CC4)ccc23)nc1C(F)(F)F (centres unmarked) [Compound I-310],< 10
4,O=C(NC1(C(=O)O)C2CC3CC(C2)CC1C3)c1ccc(-c2cn(-c3ccncc3F)c3cc(OC4CCN(c5ncccn5)CC4)ccc23)nc1C(F)(F)F (centres unmarked) [Compound I-312],< 10
5,O=C(NC1(C(=O)O)C2CC3CC(C2)CC1C3)c1ccc(-c2cn(-c3ccccc3F)c3cc(OC4CCN(c5ncccn5)CC4)ccc23)nc1C(F)(F)F (centres unmarked) [Compound I-313],< 10
6,Cc1ccccc1-n1cc(-c2ccc(C(=O)NC3(C(=O)O)C4CC5CC(C4)CC3C5)c(C(F)(F)F)n2)c2ccc(OC3CCN(c4ncccn4)CC3)cc21 (centres unmarked) [Compound I-314],< 10
7,Cc1cnccc1-n1cc(-c2ccc(C(=O)NC3(C(=O)O)C4CC5CC(C4)CC3C5)c(C(F)(F)F)n2)c2ccc(OC3CCN(c4ncccn4)CC3)cc21 (centres unmarked) [Compound I-317],< 10
8,COc1ccccc1-n1cc(-c2ccc(C(=O)NC3(C(=O)O)C4CC5CC(C4)CC3C5)c(C(F)(F)F)n2)c2ccc(OC3CCN(c4ncccn4)CC3)cc21 (centres unmarked) [Compound I-318],< 10
9,COc1cccnc1-n1cc(-c2ccc(C(=O)NC3(C(=O)O)C4CC5CC(C4)CC3C5)c(C(F)(F)F)n2)c2ccc(OC3CCN(c4ncccn4)CC3)cc21 (centres unmarked) [Compound I-325],< 10
10,O=C(NC1(C(=O)O)C2CC3CC(C2)CC1C3)c1ccc(-c2cn(-c3ccccc3C(F)(F)F)c3cc(OC4CCN(c5ncccn5)CC4)ccc23)nc1C(F)(F)F (centres unmarked) [Compound I-327],< 10
11,O=C(NC1(C(=O)O)C2CC3CC(C2)CC1C3)c1ccc(-c2cn(-c3ccncc3C(F)(F)F)c3cc(OC4CCN(c5ncccn5)CC4)ccc23)nc1C(F)(F)F (centres unmarked) [Compound I-329],< 10
12,Cn1ccc(-n2cc(-c3ccc(C(=O)NC4(C(=O)O)C5CC6CC(C5)CC4C6)c(C(F)(F)F)n3)c3ccc(OC4CCN(c5ncccn5)CC4)cc32)c1 (centres unmarked) [Compound I-334],< 10
13,N#Cc1cccnc1-n1cc(-c2ccc(C(=O)NC3(C(=O)O)C4CC5CC(C4)CC3C5)c(C(F)(F)F)n2)c2ccc(OC3CCN(c4ncccn4)CC3)cc21 (centres unmarked) [Compound I-338],< 10
14,N#Cc1cccc(-n2cc(-c3ccc(C(=O)NC4(C(=O)O)C5CC6CC(C5)CC4C6)c(C(F)(F)F)n3)c3ccc(OC4CCN(c5ncccn5)CC4)cc32)n1 (centres unmarked) [Compound I-339],< 10
15,N#Cc1ccc(-n2cc(-c3ccc(C(=O)NC4(C(=O)O)C5CC6CC(C5)CC4C6)c(C(F)(F)F)n3)c3ccc(OC4CCN(c5ncccn5)CC4)cc32)nc1 (centres unmarked) [Compound I-340],< 10
16,CN(C(=O)c1ccccc1)c1ccc2c(c1)C1(CCOCC1)CN2c1ncc(C(=O)NC2(C(=O)O)C3CC4CC(C3)CC2C4)c(C(F)(F)F)n1 (centres unmarked) [Compound I-343],10 to 100
17,CN(c1ccc2c(c1)C1(CCOCC1)CN2c1ncc(C(=O)NC2(C(=O)O)C3CC4CC(C3)CC2C4)c(C(F)(F)F)n1)S(=O)(=O)c1ccccc1 (centres unmarked) [Compound I-344],10 to 100
18,O=C(NC1(C(=O)O)C2CC3CC(C2)CC1C3)c1cnc(N2CC3(CCOCC3)c3cc(Oc4ccccc4)ccc32)nc1C(F)(F)F (centres unmarked) [Compound I-348],< 10
19,O=C(NC1(C(=O)O)C2CC3CC(C2)CC1C3)c1cnc(N2CC3(CCOCC3)c3cc(C4=CCCN(c5ncccn5)C4)ccc32)nc1C(F)(F)F (centres unmarked) [Compound I-349],< 10
20,Cn1cc2c(n1)CCN(Cc1ccc3c(c1)C1(CCOCC1)CN3c1ncc(C(=O)NC3(C(=O)O)C4CC5CC(C4)CC3C5)c(C(F)(F)F)n1)C2 (centres unmarked) [Compound I-351],10 to 100
21,O=C(NC1(C(=O)O)C2CC3CC(C2)CC1C3)c1cnc(N2CC3(CCOCC3)c3cc(CN4CCC5(CC4)COC5)ccc32)nc1C(F)(F)F (centres unmarked) [Compound I-352],10 to 100
22,O=C(NC1(C(=O)O)C2CC3CC(C2)CC1C3)c1ccc(-c2cn(C3=CCC(F)(F)CC3)c3cc(OC4CCN(c5ncc(F)cn5)CC4)ccc23)nc1C(F)(F)F (centres unmarked) [Compound I-359],< 10

# The next lines start with the values.
row,EC50 [nM],SMILES
1,10 to 100,O=C(NC1(C(=O)O)C2CC3CC(C2)CC1C3)c1cnc(N2CC3(CCOCC3)c3cc(Cc4ccccc4)ccc32)nc1C(F)(F)F (centres unmarked) [Compound I-293]
2,< 10,COc1cccc(-n2cc(-c3ccc(C(=O)NC4(C(=O)O)C5CC6CC(C5)CC4C6)c(C(F)(F)F)n3)c3ccc(OC4CCN(c5ncccn5)CC4)cc32)n1 (centres unmarked) [Compound I-296]
3,10 to 100,O=C(NC1(C(=O)O)C2CC3CC(C2)CC1C3)c1cnc(N2CC3(CCOCC3)c3cc4c(cc32)OC(F)(F)O4)nc1C(F)(F)F (centres unmarked) [Compound I-299]
4,< 10,O=C(NC1(C(=O)O)C2CC3CC(C2)CC1C3)c1ccc(-c2cn(-c3ccc(C(F)(F)F)cn3)c3cc(OC4CCN(c5ncccn5)CC4)ccc23)nc1C(F)(F)F (centres unmarked) [Compound I-303]
5,< 10,Cc1cccnc1-n1cc(-c2ccc(C(=O)NC3(C(=O)O)C4CC5CC(C4)CC3C5)c(C(F)(F)F)n2)c2ccc(OC3CCN(c4ncccn4)CC3)cc21 (centres unmarked) [Compound I-311]
6,< 10,O=C(NC1(C(=O)O)C2CC3CC(C2)CC1C3)c1ccc(-c2cn(-c3ncccc3C(F)(F)F)c3cc(OC4CCN(c5ncccn5)CC4)ccc23)nc1C(F)(F)F (centres unmarked) [Compound I-316]
7,< 10,O=C(Nc1ccc2c(c1)C1(CCOCC1)CN2c1ncc(C(=O)NC2(C(=O)O)C3CC4CC(C3)CC2C4)c(C(F)(F)F)n1)c1ccccc1 (centres unmarked) [Compound I-323]
8,< 10,Cn1cc(-n2cc(-c3ccc(C(=O)NC4(C(=O)O)C5CC6CC(C5)CC4C6)c(C(F)(F)F)n3)c3ccc(OC4CCN(c5ncccn5)CC4)cc32)cn1 (centres unmarked) [Compound I-328]
9,< 10,O=C(NC1(C(=O)O)C2CC3CC(C2)CC1C3)c1cnc(N2CC3(CCOCC3)c3cc(OC4CCN(c5ncccn5)CC4)cc(F)c32)nc1C(F)(F)F (centres unmarked) [Compound I-332]
10,< 10,N#Cc1cccc(-n2cc(-c3ccc(C(=O)NC4(C(=O)O)C5CC6CC(C5)CC4C6)c(C(F)(F)F)n3)c3ccc(OC4CCN(c5ncccn5)CC4)cc32)c1 (centres unmarked) [Compound I-336]
11,< 10,N#Cc1ccc(-n2cc(-c3ccc(C(=O)NC4(C(=O)O)C5CC6CC(C5)CC4C6)c(C(F)(F)F)n3)c3ccc(OC4CCN(c5ncccn5)CC4)cc32)cc1 (centres unmarked) [Compound I-337]
12,100 to 5000,O=C(NC1(C(=O)O)C2CC3CC(C2)CC1C3)c1cnc(N2CC3(CCOCC3)c3cc(NS(=O)(=O)c4ccccc4)ccc32)nc1C(F)(F)F (centres unmarked) [Compound I-342]
13,< 10,O=C(NC1(C(=O)O)C2CC3CC(C2)CC1C3)c1cnc(N2CC3(CCOCC3)c3cc(Br)ccc32)nc1C(F)(F)F (centres unmarked) [Compound I-347]
14,< 10,O=C(NC1(C(=O)O)C2CC3CC(C2)CC1C3)c1cnc(N2CC3(CCOCC3)c3cc(CN4CCN(c5ncccn5)CC4)ccc32)nc1C(F)(F)F (centres unmarked) [Compound I-360]
15,< 10,O=C(NC1(C(=O)O)C2CC3CC(C2)CC1C3)c1cnc(N2CC3(CCS(=O)(=O)CC3)c3cc(OC4CCN(c5ncc(F)cn5)CC4)ccc32)nc1C(F)(F)F (centres unmarked) [Compound I-365]
